Measured values from patent publication US9034855B2, “Substituted phenylacetate and phenylpropane amides and use thereof” (Bayer Intellectual Property GmbH, priority 2010, dated 2015).

Legend:
human V2 receptor = molecular target: T1, human V2 receptor (Homo sapiens, UniProt P30518); experiment: Cellular in vitro assay for determining the vasopressin receptor activity (aequorin luminescence, recombinant CHO cells), human V2; assay type: cell-based; settings: CHO cells expressing aequorin and Gα16, transfected with human V2 receptor; agonist [Arg8]-vasopressin; read-out: IC50 hV2
T1 construct: expressed in transfected cells; host or cells: CHO K1 (ATCC), constitutively expressing modified aequorin, co-transfected with promiscuous G-alpha-16
Excerpt: (§1) B-1. Cellular In Vitro Assay for Determining the Vasopressin Receptor Activity
(§2) The identification of agonists and antagonists of the V1a and V2 vasopressin receptors from humans and rats and also the quantification of the activity of the substances described here takes place using recombinant cell lines. These cells derive originally from a hamster's ovary epithelial cell (Chinese Hamster Ovary, CHO K1, ATCC: American Type Culture Collection, Manassas, Va. 20108, USA). The test cell lines constitutively express a modified form of the calcium-sensitive photoprotein aequorin, which, after reconstitution with the cofactor coelenterazine, emits light when there are increases in the free calcium concentration (Rizzuto R., Simpson A. W., Brini M., Pozzan T.; Nature 358 (1992) 325-327). In addition, the cells are stably transfected with the human or rat V1a or V2 receptors. In the case of the Gs-coupling V2 receptors, the cells are stably transfected with a further gene, which codes for the promiscuous Gα16 protein (Amatruda T. T., Steele D. A., Slepak V. Z., Simon M A., Proc. Na. Acad. Sci. USA 88 (1991), 5587-5591), either independently or as a fusion gene. The resulting vasopressin receptor test cells react to stimulation of the recombinantly expressed vasopressin receptors by intracellular release of calcium ions, which can be quantified by the resulting aequorin luminescence using a suitable luminometer (Milligan G., Marshall F., Rees S., Trends in Pharmaco. Sci. 17 (1996) 235-237).
(§3) On the day before the assay, the cells are plated out in culture medium (DMEM, 10% FCS, 2 mM glutamine, 10 mM HEPES) in 384-well microtiter plates and kept in a cell incubator (96% atmospheric humidity, 5% v/v carbon dioxide, 37° C.). On the day of the assay, the culture medium is replaced by a Tyrode solution (140 mM sodium chloride, 5 mM potassium chloride, 1 mM magnesium chloride, 2 mM calcium chloride, 20 mM glucose, 20 mM HEPES), which additionally contains the cofactor coelenterazine (50 μM), and the microtiter plate is then incubated for a further 3-4 hours. The test substances in various concentrations are placed for 10 to 20 minutes in the wells of the microtiter plate before the agonist [Arg8]-vasopressin is added, and the resulting light signal is measured immediately in the luminometer. The IC50 values are calculated using the GraphPad PRISM computer program (Version 3.02).
(§4) Table A below lists representative IC50 values for the compounds according to the invention transfected with the human V1a or V2 receptor: […]

human V1a receptor = molecular target: T2, human V1a receptor (Homo sapiens, UniProt P37288); experiment: Cellular in vitro assay for determining the vasopressin receptor activity (aequorin luminescence, recombinant CHO cells), human V1a; assay type: cell-based; settings: CHO cells expressing aequorin, transfected with human V1a receptor; agonist [Arg8]-vasopressin; read-out: IC50 hV1a
T2 construct: expressed in transfected cells; host or cells: CHO K1 (ATCC), constitutively expressing modified aequorin
Excerpt: as §1, §2, §3, §4

T1 sequence (P30518 whole entry): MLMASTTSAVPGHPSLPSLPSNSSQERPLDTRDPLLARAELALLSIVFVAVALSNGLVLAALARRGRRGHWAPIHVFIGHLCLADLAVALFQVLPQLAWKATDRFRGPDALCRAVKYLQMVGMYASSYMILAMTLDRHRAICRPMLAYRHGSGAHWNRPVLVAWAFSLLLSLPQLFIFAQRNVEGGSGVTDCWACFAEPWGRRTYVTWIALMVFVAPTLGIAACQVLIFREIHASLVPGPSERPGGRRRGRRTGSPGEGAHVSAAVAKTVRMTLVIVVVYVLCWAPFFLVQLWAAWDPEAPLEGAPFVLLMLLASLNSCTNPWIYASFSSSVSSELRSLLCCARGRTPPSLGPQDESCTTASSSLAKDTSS
T2 sequence (P37288 whole entry): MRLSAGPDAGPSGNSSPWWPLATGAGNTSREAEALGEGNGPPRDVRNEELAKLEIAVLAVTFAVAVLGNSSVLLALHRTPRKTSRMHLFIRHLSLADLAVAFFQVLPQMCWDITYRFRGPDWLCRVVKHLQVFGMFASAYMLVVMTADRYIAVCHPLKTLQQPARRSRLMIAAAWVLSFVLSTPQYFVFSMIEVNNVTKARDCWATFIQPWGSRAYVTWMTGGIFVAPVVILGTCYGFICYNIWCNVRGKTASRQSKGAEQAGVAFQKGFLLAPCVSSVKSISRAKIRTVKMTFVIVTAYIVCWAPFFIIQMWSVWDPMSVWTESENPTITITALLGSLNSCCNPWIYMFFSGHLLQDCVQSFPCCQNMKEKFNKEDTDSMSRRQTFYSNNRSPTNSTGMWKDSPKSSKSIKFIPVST

| SMILES | IC50 (human V2 receptor) | IC50 (human V1a receptor) |
| --- | --- | --- |
| O=C(Cn1nc(-c2ccc(Cl)cc2)n(C[C@H](O)C(F)(F)F)c1=O)NC(C(=O)NCCOC(F)(F)F)c1cccc(C(F)(F)F)c1 (single isomer, unassigned) [Example 60] | 19.7 nM | 3 nM |
| O=C(Cn1nc(-c2ccc(Cl)cc2)n(C[C@H](O)C(F)(F)F)c1=O)NC(C(=O)NCCOC(F)(F)F)c1cccc(C(F)(F)F)c1 (single isomer, unassigned) [Example 59] | 61 nM | 136 nM |
| CC(C)(NC(=O)C(NC(=O)Cn1nc(-c2ccc(Cl)cc2)n(C[C@H](O)C(F)(F)F)c1=O)c1cccc(C(F)(F)F)c1)C(N)=O (single isomer, unassigned) [Example 29] | 3.3 nM | 1 nM |
| O=C(Cn1nc(-c2ccc(Cl)cc2)n(C[C@H](O)C(F)(F)F)c1=O)NC(C(=O)NC1(C(=O)O)CC1)c1cccc(C(F)(F)F)c1 (single isomer, unassigned) [Example 3] | 467 nM | 554 nM |
| CC(C)(NC(=O)C(NC(=O)Cn1nc(-c2ccc(Cl)cc2)n(Cc2ccccc2F)c1=O)c1cccc(Cl)c1Cl)C(N)=O (racemic) [Example 36, N^2-[({[3-(4-Chlorophenyl)-4-(2-fluorobenzyl)-5-oxo-4,5-dihydro-1H-1,2,4-triazol-1-yl]acetyl}-amino)(2,3-dichlorophenyl)acetyl]-2-methylalaninamide] | 780 nM | 88.2 nM |
| CC(C)(NC(=O)C(NC(=O)Cn1nc(-c2ccc(Cl)cc2)n(C[C@H](O)C(F)(F)F)c1=O)c1cccc(C(F)(F)F)c1)C(=O)O (single isomer, unassigned) [Example 26] | 2.3 nM | 1.7 nM |
| NC(=O)CCNC(=O)C(NC(=O)Cn1nc(-c2ccc(Cl)cc2)n(C[C@H](O)C(F)(F)F)c1=O)c1cccc(C(F)(F)F)c1 (single isomer, unassigned) [Example 18] | 1.9 nM | 1.2 nM |
| NC(=O)CCNC(=O)C(NC(=O)Cn1nc(-c2ccc(Cl)cc2)n(C[C@H](O)C(F)(F)F)c1=O)c1cccc(C(F)(F)F)c1 (single isomer, unassigned) [Example 17] | 22 nM | 1420 nM |
| C[C@](NC(=O)Cn1nc(-c2ccc(Cl)cc2)n(C[C@H](O)C(F)(F)F)c1=O)(C(=O)NCCC(N)=O)c1cccc(C(F)(F)F)c1 [Example 19, N^3-{(2R)-2-[({3-(4-Chlorophenyl)-5-oxo-4-[(2S)-3,3,3-trifluoro-2-hydroxypropyl]-4,5-dihydro-1H-1,2,4-triazol-1-yl}acetyl)amino]-2-[3-(trifluoromethyl)phenyl]propanoyl}-beta-alaninamide] | 1.1 nM | 0.6 nM |
| CC(C)(CO)NC(=O)C(NC(=O)Cn1nc(-c2ccc(Cl)cc2)n(C[C@H](O)C(F)(F)F)c1=O)c1cccc(C(F)(F)F)c1 (single isomer, unassigned) [Example 42] | 158 nM | 38 nM |
| CC(C)(NC(=O)C(NC(=O)Cn1nc(-c2ccc(Cl)cc2)n(C[C@H](O)C(F)(F)F)c1=O)c1cccc(C(F)(F)F)c1)C(=O)O (single isomer, unassigned) [Example 25] | 282 nM | 502 nM |

The next lines start with the values.

| IC50 (human V2 receptor) | IC50 (human V1a receptor) | SMILES |
| --- | --- | --- |
| 1270 nM | 7.1 nM | CC(C)(NC(=O)C(NC(=O)Cn1nc(-c2ccc(Cl)cc2)n(CCC(F)(F)F)c1=O)c1ccccc1C(F)(F)F)C(N)=O (racemic) [Example 32, N^2-{({[3-(4-Chlorophenyl)-5-oxo-4-(3,3,3-trifluoropropyl)-4,5-dihydro-1H-1,2,4-triazol-1-yl]acetyl}amino) [2-(trifluoromethyl)phenyl]acetyl}-2-methylalaninamide] |
| 2.6 nM | 0.9 nM | O=C(C[C@H](NC(=O)Cn1nc(-c2ccc(Cl)cc2)n(C[C@H](O)C(F)(F)F)c1=O)c1ccccc1C(F)(F)F)NCCO [Example 53, (3S)-3-[({3-(4-Chlorophenyl)-5-oxo-4-[(2S)-3,3,3-trifluoro-2-hydroxypropyl]-4,5-dihydro-1H-1,2,4-triazol-1-yl}acetyl)amino]-N-(2-hydroxyethyl)-3-[2-(trifluoromethyl)phenyl]propanamide] |
| 569 nM | 6 nM | O=C(C[C@H](NC(=O)Cn1nc(-c2ccc(Cl)cc2)n(C2CC2)c1=O)c1ccccc1C(F)(F)F)NCCO [Example 55, (3S)-3-({[3-(4-Chlorophenyl)-4-cyclopropyl-5-oxo-4,5-dihydro-1H-1,2,4-triazol-1-yl]acetyl}-amino)-N-(2-hydroxyethyl)-3-[2-(trifluoromethyl)phenyl]propanamide] |
| 310 nM | 12 nM | COC(=O)CCNC(=O)C(NC(=O)Cn1nc(-c2ccc(Cl)cc2)n(C2CC2)c1=O)c1cccc(C(F)(F)F)c1 (racemic) [Example 15, Methyl N-{({[3-(4-chlorophenyl)-4-cyclopropyl-5-oxo-4,5-dihydro-1H-1,2,4-triazol-1-yl]acetyl}-amino) [3-(trifluoromethyl)phenyl]acetyl}-beta-alaninate] |
| 1170 nM | 42 nM | CCOC(=O)C1(NC(=O)C(NC(=O)Cn2nc(-c3ccc(Cl)cc3)n(C3CC3)c2=O)c2cccc(C(F)(F)F)c2)CC1 (racemic) [Example 5, Ethyl 1-({({[3-(4-chlorophenyl)-4-cyclopropyl-5-oxo-4,5-dihydro-1H-1,2,4-triazol-1-yl]acetyl}-amino) [3-(trifluoromethyl)phenyl]acetyl}amino)cyclopropanecarboxylate] |
| 7.4 nM | 14.5 nM | COCCNC(=O)C[C@H](NC(=O)Cn1nc(-c2ccc(Cl)cc2)n(C[C@H](O)C(F)(F)F)c1=O)c1cccc(C(F)(F)F)c1 [Example 57, (3S)-3-[({3-(4-Chlorophenyl)-5-oxo-4-[(2S)-3,3,3-trifluoro-2-hydroxypropyl]-4,5-dihydro-1H-1,2,4-triazol-1-yl}acetyl)amino]-N-(2-methoxyethyl)-3-[3-(trifluoromethyl)phenyl]propanamide] |
| 0.8 nM | 4.9 nM | CC(C)(NC(=O)C[C@H](NC(=O)Cn1nc(-c2ccc(Cl)cc2)n(C[C@H](O)C(F)(F)F)c1=O)c1cccc(C(F)(F)F)c1)C(=O)O [Example 39, N-{(3S)-3-[({3-(4-Chlorophenyl)-5-oxo-4-[(2S)-3,3,3-trifluoro-2-hydroxypropyl]-4,5-dihydro-1H-1,2,4-triazol-1-yl}acetyl)amino]-3-[3-(trifluoromethyl)phenyl]propanoyl}-2-methylalanine] |
| 182 nM | 24 nM | CC(C)(NC(=O)C(NC(=O)Cn1nc(-c2ccc(Cl)cc2)n(C2CC2)c1=O)c1cccc(C(F)(F)F)c1)C(=O)O (racemic) [Example 12, N-{({[3-(4-Chlorophenyl)-4-cyclopropyl-5-oxo-4,5-dihydro-1H-1,2,4-triazol-1-yl]acetyl}amino) [3-(trifluoromethyl)phenyl]acetyl}-2-methylalanine] |
| 262 nM | 524 nM | O=C(O)CCNC(=O)C(NC(=O)Cn1nc(-c2ccc(Cl)cc2)n(C2CC2)c1=O)c1cccc(C(F)(F)F)c1 (racemic) [Example 16, N-{({[3-(4-Chlorophenyl)-4-cyclopropyl-5-oxo-4,5-dihydro-1H-1,2,4-triazol-1-yl]acetyl}amino) [3-(trifluoromethyl)phenyl]acetyl}-beta-alanine] |
| 9 nM | 53 nM | O=C(O)CCNC(=O)C(NC(=O)Cn1nc(-c2ccc(Cl)cc2)n(C[C@H](O)C(F)(F)F)c1=O)c1cccc(C(F)(F)F)c1 (stereo partly drawn) [Example 14, N-{[({3-(4-Chlorophenyl)-5-oxo-4-[(2S)-3,3,3-trifluoro-2-hydroxypropyl]-4,5-dihydro-1H-1,2,4-triazol-1-yl}acetyl)amino][3-(trifluoromethyl)phenyl]acetyl}-beta-alanine] |
| 8.1 nM | 11.1 nM | CC(C)(NC(=O)C[C@H](NC(=O)Cn1nc(-c2ccc(Cl)cc2)n(C[C@H](O)C(F)(F)F)c1=O)c1cccc(C(F)(F)F)c1)C(N)=O [Example 40, N^2-{(3S)-3-[({3-(4-Chlorophenyl)-5-oxo-4-[(2S)-3,3,3-trifluoro-2-hydroxypropyl]-4,5-dihydro-1H-1,2,4-triazol-1-yl}acetyl)amino]-3-[3-(trifluoromethyl)phenyl]propanoyl}-2-methylalaninamide] |
